A value given as a limit tells only on which side of the number the result lay.

The first experiment deals with IMPDH human type II (Homo sapiens, UniProt P12268). The experiment in a line: IMPDH activity inhibition assay (spectrophotometric, NADH formation at 340 nm).
Conditions: not given
Format: biochemical. The procedure:
We have measured the inhibition constants of each compound against IMPDH using an adaptation of the method first reported by […]. Moyed, and […]. Biol. Chem., 226, p. 339 (1957)]. We measured the inhibition constants of the compounds listed in Table III utilizing the following protocol: IMP dehydrogenase activity was assayed following an adaptation of the method first reported by […]. Moyed, H. S. and […]. Biol. Chem. 226, 339]. Enzyme activity was measured spectrophotometrically, by monitoring the increase in absorbance at 340 nm due to the formation of NADH (ε340 is 6220 M^-1 cm^-1). The reaction mixture contained 0.1 M Tris pH 8.0, 0.1 M KCl, 3 mM EDTA, 2 mM DTT, […] and enzyme (IMPDH human type II) at a concentration of 15 to 50 nM. This solution is incubated at 37° C. for 10 minutes. The reaction is started by adding NAD to a final concentration of 0.1 M and the initial rate is measured by following the linear increase in absorbance at 340 nm for 10 minutes. For reading in a standard spectrophotometer (path length 1 cm) the final volume in the cuvette is 1.0 ml. The assay has also been adapted to a 96 well microtiter plate format; in this case the concentrations of all the reagents remain the same and the final volume is decreased to 200 μl. For the analysis of inhibitors, the compound in question is dissolved in DMSO to a final concentration of 20 mM and added to the initial assay mixture for preincubation with the enzyme at a final volume of 2-5% (v/v). The reaction is started by the addition of NAD, and the initial rates measured as above. […] The designation “ND” is used where a given compound was not tested.
On to `COc1cc(NC(=O)Nc2cccc(CNC(=O)Oc3ccccc3)c2)ccc1-c1cnco1` [Compound 119], for which the Ki fell in the range of 0.01 to 50 nM.

Take `COC(=O)c1ccc(OC(=O)NCc2cccc(NC(=O)Nc3ccc(-c4cnco4)c(OC)c3)c2)cc1` [Compound 123]: the Ki is 0.01 to 50 nM.

The compound `COc1cc(NC(=O)Nc2cccc(CNC(=O)Oc3ccc(NC(C)=O)cc3)c2)ccc1-c1cnco1` [Compound 127] yielded a Ki of 0.01 to 50 nM.

The compound `C=CCOC(=O)NCc1cccc(NC(=O)Nc2ccc(-c3cnco3)c(OC)c2)c1` [Compound 125] gave a Ki of 0.01 to 50 nM.

Still in this experiment, the particulars now being: IMPDH human type II, 15 to 50 nM enzyme, 37° C., tight-binding fit (Henderson); read-out: Ki.
For `O=C(Nc1ccc(-c2cnco2)cc1)Nc1cccc(CO)c1` [Compound 25], the Ki lay in the range of 1000 to 10000 nM.

With `COc1cc(NC(=O)Nc2cccc(CNC(=O)OCC3CCCN(C(=O)OC(C)(C)C)C3)c2)ccc1-c1cnco1` (stereo not shown) [Compound 149], the inhibition constant Ki was in the range of 0.01 to 50 nM.

As for `COc1cc(NC(=O)Nc2cccc(NC(=O)C(F)(F)F)c2)ccc1-c1cnco1` [Compound 96], the Ki lay in the range of 51 to 1000 nM.

With `O=C(Nc1ccc(Oc2ccccc2)cc1)Nc1ccc(-c2cnco2)cc1` [Compound 21], the Ki was 1000 to 10000 nM.

As for `COCCOC(=O)NCc1cccc(NC(=O)Nc2ccc(-c3cnco3)c(OC)c2)c1` [Compound 130], the Ki was 0.01 to 50 nM.

On to `COc1cc(NC(=O)Nc2cccc(CNC(=O)OC3C(=O)OCC3(C)C)c2)ccc1-c1cnco1` (stereo not shown) [Compound 144], for which the Ki fell in the range of 51 to 1000 nM.

With `Cc1cnc(NC(=O)Nc2ccc(-c3cnco3)cc2)s1` [Compound 31], the Ki was above 10000 nM.

Take `C#Cc1cccc(NC(=O)Nc2ccc(-c3cnco3)cc2)c1` [Compound 26]: the Ki is 1000 to 10000 nM.

On to `COc1cc(NC(=O)Nc2cccc(CNC(=O)OC[C@@H]3CNC(=O)O3)c2)ccc1-c1cnco1` [Compound 122], for which the Ki fell in the range of 0.01 to 50 nM.

As for `COc1cc(NC(=O)Nc2cccc(NC(=O)Cc3ccccc3)c2)ccc1-c1cnco1` [Compound 111], the Ki is 0.01 to 50 nM.

Turning to `Cc1cccc(NC(=O)Nc2ccc(-c3cnco3)cc2)c1` [Compound 17], the Ki was in the range of 51 to 1000 nM.

With `COc1ccc(C)cc1NC(=O)Nc1ccc(-c2cnco2)cc1` [Compound 11], the Ki lay within 1000 to 10000 nM.

As to `O=C(Nc1ccc(-c2cnco2)cc1)Nc1ccc(F)c([N+](=O)[O-])c1` [Compound 104], the Ki lay within 1000 to 10000 nM.

For `COc1cc(NC(=O)Nc2cccc(CNC(=O)OCC3CCN(C(=O)OC(C)(C)C)CC3)c2)ccc1-c1cnco1` [Compound 148], the Ki fell in the range of 0.01 to 50 nM.

For `O=C(O)Cc1cccc(NC(=O)Nc2ccc(-c3cnco3)c(Cl)c2)c1` [Compound 63], the Ki is 1000 to 10000 nM.

Take `CSc1cccc(NC(=O)Nc2ccc(-c3cnco3)cc2)c1` [Compound 6]: the Ki lay in the range of 1000 to 10000 nM.

Consider `COc1ccc(NC(=O)Nc2cccc(F)c2)cc1OC` [Compound 36], for which the Ki was 1000 to 10000 nM.

For the compound `O=C(Nc1ccc(-c2cnco2)cc1)Nc1cccc(S(=O)(=O)NC2CCCCC2)c1` [Compound 80], the Ki was 1000 to 10000 nM.

As to `CC(=O)OCc1cc(NC(=O)Nc2cccc(C)c2)ccc1-c1cnco1` [Compound 101], the Ki fell in the range of 1000 to 10000 nM.

`COc1ccc(OC)c(NC(=O)Nc2ccc(-c3cnco3)cc2)c1` [Compound 14]: the Ki is 1000 to 10000 nM.

Take `COc1cc(NC(=O)Nc2cccc(N)c2)ccc1-c1cnco1` [Compound 59]: the Ki fell in the range of 0.01 to 50 nM.

With `COc1ccc(NC(=O)Nc2cccc(Br)c2)cc1OC` [Compound 34], the Ki is 1000 to 10000 nM.

Take `O=C(Nc1ccsc1)Nc1ccc(-c2cnco2)c(Cl)c1` [Compound 69]: the Ki lay in the range of 51 to 1000 nM.

On to `CC1(c2cccc(NC(=O)Nc3ccc(-c4cnco4)cc3)c2)OCCO1` [Compound 50], for which the Ki is above 10000 nM.

On to `COc1cc(NC(=O)Nc2cccc(CNC(=O)OC3CCCCO3)c2)ccc1-c1cnco1` (racemic) [Compound 142], for which the Ki lay within 0.01 to 50 nM.

`CNc1cccc(NC(=O)Nc2ccc(-c3cnco3)c(Cl)c2)c1` [Compound 94]: the Ki is 51 to 1000 nM.

On to `CC(=O)N(C)c1cccc(NC(=O)Nc2ccc(C#N)c(S(C)(=O)=O)c2)c1` [Compound 166], for which the Ki was above 10000 nM.

As to `Cc1c(Cl)cccc1NC(=O)Nc1ccc(-c2cnco2)cc1` [Compound 10], the Ki is 1000 to 10000 nM.

For the compound `NC(=O)c1cccc(NC(=O)Nc2ccc(-c3cnco3)cc2)c1` [Compound 51], the Ki was above 10000 nM.

With `O=C(Nc1ccc(-c2cnco2)cc1)Nc1cccc(O)c1` [Compound 27], the Ki fell in the range of 1000 to 10000 nM.

Turning to `COc1cc(NC(=O)Nc2cccc(N(C)C(C)=O)c2)ccc1-c1cnco1` [Compound 107], the Ki is 0.01 to 50 nM.

As to `COC(=O)c1cc(NC(=O)Nc2cccc([N+](=O)[O-])c2)ccc1-c1cnco1` [Compound 89], the Ki lay within 1000 to 10000 nM.

Regarding `O=C(Nc1ccc(-c2cnco2)c(Cl)c1)Nc1cccs1` [Compound 68], the Ki was 51 to 1000 nM.

For the compound `CN(C)c1cccc(NC(=O)Nc2ccc(-c3cnco3)cc2)c1` [Compound 49], the Ki fell in the range of 1000 to 10000 nM.

With `O=C(O)Cc1cccc(NC(=O)Nc2ccc(-c3cnco3)cc2)c1` [Compound 54], the inhibition constant (Ki) was 1000 to 10000 nM.

For the compound `COc1cc(NC(=O)Nc2cccc(NC(=O)C(=O)c3cc(OC)c(OC)c(OC)c3)c2)ccc1-c1cnco1` [Compound 108], the Ki was in the range of 51 to 1000 nM.

As for `O=C(Nc1ccc(-c2cnco2)cc1)Nc1ccc(F)c(F)c1` [Compound 4], the Ki is above 10000 nM.

On to `Cc1cccc(NC(=O)Nc2ccc(-c3cnco3)c(F)c2)c1` [Compound 46], for which the Ki was 51 to 1000 nM.

As for `Cc1cc(NC(=O)Nc2ccc(-c3cnco3)c(Cl)c2)ccn1` [Compound 62], the Ki lay within 1000 to 10000 nM.

For `O=C(Nc1ccc(-c2cnco2)cc1)Nc1cccc(S(=O)(=O)Nc2ccccc2)c1` [Compound 82], the Ki lay in the range of 1000 to 10000 nM.

Regarding `O=C(NCc1ccccc1)Nc1ccc(-c2cnco2)cc1` [Compound 1], the Ki was 1000 to 10000 nM.

With `O=C(Nc1cccc(I)c1)Nc1ccc(-c2cnco2)c(Cl)c1` [Compound 73], the Ki fell in the range of 51 to 1000 nM.

With `O=C(Nc1ccc(-c2cnco2)cc1)Nc1ccc(Cl)c(C(F)(F)F)c1` [Compound 9], the Ki was in the range of 1000 to 10000 nM.

For the compound `Nc1cccc(NC(=O)Nc2ccc(-c3cnco3)c(Cl)c2)c1` [Compound 79], the Ki lay in the range of 51 to 1000 nM.

Take `COc1cc(NC(=O)Nc2cccc(CNC(=O)OCC3CCCNC3)c2)ccc1-c1cnco1` (stereo not shown) [Compound 158]: the Ki is 51 to 1000 nM.

With `COc1cc(NC(=O)Nc2cccc(CNC(=O)OCC3CCOC(C)(C)O3)c2)ccc1-c1cnco1` (stereo not shown) [Compound 146], the Ki lay within 0.01 to 50 nM.

On to `COc1ccc(NC(=O)Nc2cccc([N+](=O)[O-])c2)cc1Cl` [Compound 52], for which the Ki fell in the range of 1000 to 10000 nM.

Turning to `COc1cc(NC(=O)Nc2cccc(CNC(=O)OC3CCSC3)c2)ccc1-c1cnco1` (stereo not shown) [Compound 160], the Ki is 0.01 to 50 nM.

On to `COc1cc(NC(=O)Nc2cccc(CNC(=O)OCC3CCCCC3)c2)ccc1-c1cnco1` [Compound 135], for which the inhibition constant Ki is 0.01 to 50 nM.

For the compound `COc1cc(NC(=O)Nc2cccc(CNC(=O)OCC3CCCCN3)c2)ccc1-c1cnco1` (stereo not shown) [Compound 159], the Ki was in the range of 0.01 to 50 nM.

Regarding `O=C(Nc1ccc(-c2cnco2)cc1)Nc1ccc([N+](=O)[O-])cc1` [Compound 16], the Ki lay in the range of 1000 to 10000 nM.

For `COc1cc(NC(=O)Nc2cccc(CNC(=O)OC3CCOCC3)c2)ccc1-c1cnco1` [Compound 131], the Ki lay in the range of 0.01 to 50 nM.

For `Cc1cccc(NC(=O)Nc2ccc(C#N)c(Cl)c2)c1` [Compound 70], the Ki was 1000 to 10000 nM.

Take `Cc1cccc(NC(=O)Nc2ccc(-c3cnco3)c(CO)c2)c1` [Compound 102]: the Ki fell in the range of 1000 to 10000 nM.

Turning to `Cc1cc(NC(=O)Nc2ccc(-c3cnco3)cc2)ccc1[N+](=O)[O-]` [Compound 40], the Ki is 1000 to 10000 nM.

Regarding `N#Cc1cccc(NC(=O)Nc2ccc(-c3cnco3)cc2)c1` [Compound 8], the Ki lay in the range of 1000 to 10000 nM.

For `O=C(Nc1ccc(-c2cnco2)cc1)Nc1cccc([N+](=O)[O-])c1` [Compound 15], the Ki is 1000 to 10000 nM.

Consider `Cc1cccc(NC(=O)Nc2ccc(-c3cnco3)c(C)c2)c1` [Compound 75], for which the Ki lay within 51 to 1000 nM.

For `O=C(Nc1ccc(-c2cnco2)cc1)Nc1ccc([N+](=O)[O-])c(C(F)(F)F)c1` [Compound 41], the Ki was in the range of 1000 to 10000 nM.

In the case of `Cc1cc(NC(=O)Nc2ccccc2)ccc1-c1cnco1` [Compound 74], the Ki is 51 to 1000 nM.

Consider `CSc1cc(NC(=O)Nc2cccc(CNC(=O)O[C@H]3CCOC3)c2)ccc1C#N` [Compound 168], for which the Ki lay within 51 to 1000 nM.

In the case of `Nc1cccc(NC(=O)Nc2ccc(-c3cnco3)cc2)c1` [Compound 24], the Ki is 51 to 1000 nM.

As to `Cc1cccc(NC(=O)Nc2ccc(-c3cnco3)c(Cl)c2)c1` [Compound 43], the inhibition constant Ki lay within 51 to 1000 nM.

As to `O=C(Nc1ccccc1)Nc1ccc(-c2cnco2)c(Cl)c1` [Compound 42], the Ki lay in the range of 51 to 1000 nM.

`CC(C)(C)OC(=O)NCc1cccc(NC(=O)Nc2cccc(CNC(=O)OC(C)(C)C)c2)c1` [Compound 103]: the Ki was 1000 to 10000 nM.

On to `COc1cc(NC(=O)Nc2cccc(CNC(=O)OC3CCCCC3)c2)ccc1-c1cnco1` [Compound 132], for which the Ki is 0.01 to 50 nM.

By Ki is commonly meant a measure of affinity in units of concentration, obtained from inhibition or displacement.

The values above are taken from patent US7329681B2, “Inhibitors of IMPDH enzyme” (Vertex Pharmaceuticals Incorporated, priority 1996, dated 2008).
